From patent publication US9493487B2, “3-(1H-imidazo[4,5-C]pyridin-2-YL)-1H-pyrazolo[3,4-B]pyridine and therapeutic uses thereof” (Samumed, LLC, priority 2014, dated 2016) come the findings set out here.

What all share (type): cell-based
The subject of assay [1] is Wnt activity (Sp5-Luc reporter, SW480 colon carcinoma cells). The assay is described as follows: Sp5-Luc Wnt reporter gene assay in SW480 colon carcinoma cells. Conditions: Homo sapiens; SW480 cells stably expressing Sp5-Luc reporter; 42 h incubation; BrightGlo luminescence normalized to DMSO. In outline:
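IC50 values come from variable-slope four-parameter fits of luciferase signal normalized to DMSO wells. Stable Sp5-Luc reporter SW480 colon carcinoma cells were exposed to compounds in a 3-fold dilution series (source plates from 10 mM stock) for forty-two hours at 37 °C.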
(In general: In a reporter assay the amount or activity of a reporter protein is the signal.)

For assay [2], the system named is primary human mesenchymal stem cells (hMSCs). The assay is described as follows: Chondrogenesis induction screen in primary human mesenchymal stem cells (nodule count, Rhodamine B/Nile Red). Conditions: 144 h, 6 days, concentration required to induce chondrogenesis equivalent to TGF-β3 (10 ng/mL), read-out: Conc (nM) of 100% TGF-β3 activity. Here is the method: The above synthesized compounds were screened using primary human mesenchymal stem cells (hMSCs) to determine their ability to induce chondrogenesis (process by which cartilage is developed).
Primary human mesenchymal stem cells (hMSCs) were purchased from Lonza (Walkersville, Md.) and expanded in Mesenchymal Stem Cell Growth Media (Lonza). Cells between passage 3 and 6 were used for the experiments.
Each compound was dissolved in DMSO as a 10 mM stock and used to prepare compound source plates. Serial dilution (1:3, 6-point dose-response curves from 2700 nM to 10 nM) and compound transfer was performed using the ECHO 550 (Labcyte, Sunnyvale, Calif.) into 96-well clear bottom assay plates (Greiner Bio-One) with appropriate DMSO backfill for a final DMSO concentration of 0.03%. hMSCs were plated at 20,000 cells/well in 250 μL/well Incomplete Chondrogenic Induction Medium (Lonza; DMEM, dexamethasone, ascorbate, insulin-transferrin-selenium [ITS supplement], gentamycin-amphotericin [GA-1000], sodium pyruvate, proline and L-glutamine). TGF-β3 (10 ng/mL) was used as a positive control for differentiation while negative control wells were treated with 75 nL DMSO for normalization and calculating EC50 values. Cells were incubated at 37° C. and 5% CO2 for 6 days. To image chondrogenic nodules, the cells were fixed using 4% formaldehyde (Electron Microscopy Sciences), and stained with 2 μg/mL Rhodamine B (Sigma-Aldrich) and 20 μM Nile Red (Sigma-Aldrich) [Johnson K., et. al, A Stem Cell-Based Approach to Cartilage Repair, Science, (2012), 336(6082), 717-721]. The nodules imaged (4 images per well at 4× magnification) by excitation at 531 nm and emission at 625 nm and quantified using the CellInsight CX5 (Thermo Scientific). Number of nodules in each well was normalized to the average of 3 DMSO treated wells on the same plate using Excel (Microsoft Inc.). The normalized averages (fold change over DMSO) of 3 replicate wells for each compound concentration were calculated. Due to solubility limitations of some of the compounds, curve fitting was incomplete leading to inaccurate EC50 determinations.
Using TGF-β3 as a positive control, the concentration of test compounds required to induce equivalent levels of chondrogenesis is reported. In addition, the maximum activity of each compound and the respective dose that each compound reached maximum chondrogenesis activity is reported.

Assay [3] deals with primary human fibroblasts derived from IPF patients (LL29 cells). The assay is described as follows: Inhibition of TGF-β1-induced fibrosis (αSMA staining) in primary human fibroblasts from IPF patients. Conditions: Fibroblast, 96 h, TGF-β1 20 ng/mL, 4 days, 11-point dose-response 10 μM to 1.87 nM. In outline:
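LL29 cells in F12 with 1% FBS were exposed to compound (11-point, 10 μM–1.87 nM, 0.1% DMSO) plus TGF-β1 20 ng/mL for 4 days at 37° C. Imaged αSMA-positive fraction of live (SYTOX-negative) cells, normalized to TGF-β1/DMSO wells; EC50 by non-linear regression of triplicates.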

By IC50 is commonly meant the concentration that gives 50% inhibition. As a reminder, the EC50 is the concentration giving half of the maximal effect. A low value points to a more potent agent. In turn, `Cc1ccc(-c2nccc3[nH]c(-c4n[nH]c5ncc(-c6cncc(N)c6)cc45)nc23)s1` [Compound 341, 5-(3-(4-(5-Methylthiophen-2-yl)-1H-imidazo[4,5-c]pyridin-2-yl)-1H-pyrazolo[3,4-b]pyridin-5-yl)pyridin-3-amine] gave an IC50 in assay [1] of 0.9 nM. In assay [2], the EC (100% TGF-beta3 activity) stood at 58.2 nM. Also, in assay [3], the EC50 came to 9 nM.
The matching figures for `CC(=O)c1ccc(-c2nccc3[nH]c(-c4n[nH]c5ncc(-c6cccnc6)cc45)nc23)s1` [Compound 368, 1-(5-(2-(5-(Pyridin-3-yl)-1H-pyrazolo[3,4-b]pyridin-3-yl)-1H-imidazo[4,5-c]pyridin-4-yl)thiophen-2-yl)ethan-1-one]: 10.4 nM, 84.6 nM and 241 nM.
The matching figures for `Cc1ccncc1-c1cnc2[nH]nc(-c3nc4c(-c5cc(F)cc(CNS(C)(=O)=O)c5)nccc4[nH]3)c2c1` [Compound 395, N-(3-Fluoro-5-(2-(5-(4-methylpyridin-3-yl)-1H-pyrazolo[3,4-b]pyridin-3-yl)-1H-imidazo[4,5-c]pyridin-4-yl)benzyl)methanesulfonamide]: 8 nM, 92.8 nM and 9 nM.
`CC(C)Nc1cncc(-c2cnc3[nH]nc(-c4nc5c(-c6cc(F)cc(NCCN(C)C)c6)nccc5[nH]4)c3c2)c1` [Compound 428, N^1-(3-Fluoro-5-(2-(5-(5-(isopropylamino)pyridin-3-yl)-1H-pyrazolo[3,4-b]pyridin-3-yl)-1H-imidazo[4,5-c]pyridin-4-yl)phenyl)-N^2,N^2-dimethylethane-1,2-diamine] had a concentration for half-maximal inhibition (IC50) in assay [1] of 15 nM. Also, the EC (100% TGF-beta3 activity) in assay [2] was found to be 82.9 nM. The molecule further showed an EC50 in assay [3] of 20 nM.
For the molecule `Cn1cc(-c2cnc3[nH]nc(-c4nc5c(-c6cccc(F)c6)nccc5[nH]4)c3c2)cn1` [Compound 888, 3-(4-(3-Fluorophenyl)-1H-imidazo[4,5-c]pyridin-2-yl)-5-(1-methyl-1H-pyrazol-4-yl)-1H-pyrazolo[3,4-b]pyridine], the IC50 in assay [1] is 12 nM. Besides, the EC (100% TGF-beta3 activity) in assay [2] was 74.9 nM. The response in assay [3] was half-maximal at 14 nM (EC50).
Taken in the same sequence, the figures for `Cc1ncc(-c2cnc3[nH]nc(-c4nc5c(-c6cccc(F)c6)nccc5[nH]4)c3c2)n1C` [Compound 889, 5-(1,2-Dimethyl-1H-imidazol-5-yl)-3-(4-(3-fluorophenyl)-1H-imidazo[4,5-c]pyridin-2-yl)-1H-pyrazolo[3,4-b]pyridine] were 12 nM, 152 nM and 9 nM.
